Source: ChEMBL document CHEMBL4417631, “Oral peptide inhibitors of interleukin-23 receptor and their use to treat inflammatory bowel diseases” (2017)
pIC50: −log10 of the molar value. Where a SMILES comes first, the peptide text is derived from it. The star is where a group is joined. Palmitoyl = CCCCCCCCCCCCCCCC(=O)*

Molecular target: T1, Interleukin-23 receptor (Homo sapiens, UniProt Q5VWK5)
T1 sequence (Q5VWK5 whole entry): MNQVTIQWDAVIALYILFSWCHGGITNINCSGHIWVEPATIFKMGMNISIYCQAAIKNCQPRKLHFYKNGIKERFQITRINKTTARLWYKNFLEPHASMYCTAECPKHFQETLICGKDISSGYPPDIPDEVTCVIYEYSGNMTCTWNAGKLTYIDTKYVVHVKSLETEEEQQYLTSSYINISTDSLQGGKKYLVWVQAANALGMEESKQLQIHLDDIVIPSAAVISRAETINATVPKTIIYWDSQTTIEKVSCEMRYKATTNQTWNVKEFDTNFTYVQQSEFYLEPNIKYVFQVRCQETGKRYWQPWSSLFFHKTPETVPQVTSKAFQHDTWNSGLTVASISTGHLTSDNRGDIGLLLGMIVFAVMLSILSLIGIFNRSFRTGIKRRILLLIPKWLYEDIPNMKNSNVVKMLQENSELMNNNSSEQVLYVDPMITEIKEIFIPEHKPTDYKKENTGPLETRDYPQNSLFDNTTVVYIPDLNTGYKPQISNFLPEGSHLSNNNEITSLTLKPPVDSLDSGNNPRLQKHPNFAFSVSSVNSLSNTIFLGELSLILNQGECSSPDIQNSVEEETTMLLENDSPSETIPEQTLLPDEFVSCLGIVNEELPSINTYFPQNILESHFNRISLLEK
Experiment: Inhibition of interleukin-23 binding to human interleukin-23 receptor incubated for 2 hrs by competitive binding ELISA

Row | SMILES | pIC50
1 | CC(=O)N[C@@H](CS)C(=O)N[C@@H](C)C(=O)N[C@@H](CC(=O)O)C(=O)N[C@@H](Cc1c[nH]c2ccccc12)C(=O)N[C@H](C(=O)N[C@@H](CS)C(=O)N[C@@H](Cc1ccc(O)cc1)C(=O)N[C@@H](Cc1c[nH]c2ccccc12)C(=O)N[C@@H](Cc1cnc[nH]1)C(=O)N[C@@H](Cc1ccccc1)C(=O)N[C@@H](Cc1cnc[nH]1)C(=O)N[C@@H](CCC(N)=O)C(=O)N[C@@H](CC(C)C)C(=O)N[C@@H](CCCNC(=N)N)C(=O)N[C@@H](CC(=O)O)C(=O)N[C@@H](C)C(N)=O)C(C)C (Ac-CADWVCYWHFHQLRDA-NH2) | 6.00 to 6.30
2 | CC(=O)N[C@@H](CS)C(=O)N[C@@H](CCC(N)=O)C(=O)N[C@H](C(=O)N[C@@H](Cc1c[nH]c2ccccc12)C(=O)N[C@@H](CCC(N)=O)C(=O)N[C@@H](CS)C(=O)N[C@@H](Cc1ccc(O)cc1)C(=O)N[C@@H](Cc1c[nH]c2ccccc12)C(=O)N[C@H](CCCNC(=N)N)C(=O)N[C@@H](CCC(=O)O)C(=O)N[C@@H](CC(N)=O)C(=O)NCC(=O)NCCOCC(=O)N[C@H](CCCCN)C(N)=O)[C@@H](C)O | < 6.00
3 | CC(=O)N[C@@H](CS)C(=O)N[C@@H](CCC(N)=O)C(=O)N[C@H](C(=O)N[C@@H](Cc1c[nH]c2ccccc12)C(=O)N[C@@H](CCC(N)=O)C(=O)N[C@@H](CS)C(=O)N[C@@H](Cc1ccc(O)cc1)C(=O)N[C@@H](Cc1c[nH]c2ccccc12)C(=O)N[C@@H](CCCNC(=N)N)C(=O)N[C@@H](CCC(=O)O)C(=O)N[C@@H](CC(N)=O)C(=O)NCC(=O)NCCOCC(=O)N[C@H](CCCCN)C(N)=O)[C@@H](C)O | > 6.30
4 | CC(=O)N[C@@H](CS)C(=O)N[C@@H](C)C(=O)N[C@@H](CC(=O)O)C(=O)N[C@@H](Cc1c[nH]c2ccccc12)C(=O)N[C@H](C(=O)N[C@@H](CS)C(=O)N[C@@H](Cc1ccc(O)cc1)C(=O)N[C@@H](Cc1c[nH]c2ccccc12)C(=O)N[C@@H](Cc1cnc[nH]1)C(=O)N[C@H](C(=O)N[C@@H](Cc1ccccc1)C(=O)NCC(=O)N1CCC[C@H]1C(=O)N[C@H](CCCCN)C(=O)O)[C@@H](C)O)C(C)C | > 6.30
5 | CCCCCCCCCCCCCCCC(=O)NCCCC[C@H](NC(=O)[C@H](CCC(=O)O)NC(=O)[C@H](CC(C)C)NC(=O)[C@H](Cc1c[nH]c2ccccc12)NC(=O)[C@H](Cc1ccc(O)cc1)NC(=O)[C@H](CS)NC(=O)[C@H](CCC(N)=O)NC(=O)[C@H](Cc1c[nH]c2ccccc12)NC(=O)[C@@H](NC(=O)[C@H](CCC(N)=O)NC(=O)[C@H](CS)NC(C)=O)[C@@H](C)O)C(=O)NCC(N)=O (Ac-CQTWQCYWLEK(Palmitoyl)G-NH2) | < 5.22
6 | CC(=O)N[C@@H](CS)C(=O)N[C@@H](C)C(=O)N[C@@H](CC(=O)O)C(=O)N[C@@H](Cc1c[nH]c2ccccc12)C(=O)N[C@H](C(=O)N[C@@H](CS)C(=O)N[C@@H](Cc1ccc(O)cc1)C(=O)N[C@@H](Cc1c[nH]c2ccccc12)C(=O)N[C@@H](CCCN)C(=O)N[C@@](C)(CC(C)C)C(=O)N[C@@H](Cc1ccccc1)C(=O)NCC(=O)NCCOCC(=O)N[C@H](CCCCN)C(N)=O)C(C)C | 5.22
7 | CC(C)[C@H](NC(=O)[C@H](Cc1c[nH]c2ccccc12)NC(=O)[C@H](CC(=O)O)NC(=O)[C@H](C)NC(=O)[C@@H](N)CS)C(=O)N[C@@H](CS)C(=O)N[C@@H](Cc1ccc(O)cc1)C(=O)N[C@@H](Cc1cccc2ccccc12)C(=O)N[C@@H](Cc1cnc[nH]1)C(=O)N(C)CC(=O)N[C@@H](Cc1ccccc1)C(=O)O | < 6.00
8 | CC(=O)NC1C/C=C\CCCC(C(=O)N[C@@H](Cc2ccc(O)cc2)C(=O)N[C@@H](Cc2c[nH]c3ccccc23)C(=O)N[C@@H](CCCNC(=N)N)C(=O)N[C@@H](CCCCN)C(=O)N[C@@H](Cc2ccccc2)C(=O)NCC(=O)NCCOCC(=O)N[C@H](CCCCN)C(N)=O)NC(=O)[C@H](CCC(N)=O)NC(=O)[C@H](Cc2c[nH]c3ccccc23)NC(=O)[C@H]([C@@H](C)O)NC(=O)[C@H](CCCNC(=N)N)NC1=O (some centres undefined) | 5.00 to 6.00
9 | CC(=O)N[C@H](C(=O)N[C@@H](CCC(N)=O)C(=O)N[C@H](C(=O)N[C@@H](Cc1c[nH]c2ccccc12)C(=O)N[C@@H](CCC(N)=O)C(=O)N[C@H](C(=O)N[C@@H](Cc1cc(F)cc(F)c1)C(=O)N[C@@H](Cc1ccc2ccccc2c1)C(=O)N[C@@](C)(CCCN)C(=O)N[C@@H](CCC(N)=O)C(=O)N[C@@H](CC(N)=O)C(=O)NCC(N)=O)C(C)(C)S)[C@@H](C)O)C(C)(C)S | 6.00 to 7.00
10 | CC(=O)N[C@H](CCCCNC(=O)COCC(=O)NCCCC[C@@H](NC(C)=O)C(=O)N[C@@H](CO)C(=O)N[C@@H](CS)C(=O)N[C@@H](C)C(=O)N[C@@H](CC(=O)O)C(=O)N[C@@H](Cc1c[nH]c2ccccc12)C(=O)N[C@H](C(=O)N[C@@H](CS)C(=O)N[C@@H](Cc1ccc(O)cc1)C(=O)N[C@@H](Cc1c[nH]c2ccccc12)C(=O)N[C@@H](Cc1cnc[nH]1)C(=O)N[C@H](C(=O)N[C@@H](Cc1ccccc1)C(=O)NCC(=O)O)[C@@H](C)O)C(C)C)C(=O)N[C@@H](CO)C(=O)N[C@@H](CS)C(=O)N[C@@H](C)C(=O)N[C@@H](CC(=O)O)C(=O)N[C@@H](Cc1c[nH]c2ccccc12)C(=O)N[C@H](C(=O)N[C@@H](CS)C(=O)N[C@@H](Cc1ccc(O)cc1)C(=O)N[C@@H](Cc1c[nH]c2ccccc12)C(=O)N[C@@H](Cc1cnc[nH]1)C(=O)N[C@H](C(=O)N[C@@H](Cc1ccccc1)C(=O)NCC(=O)O)[C@@H](C)O)C(C)C | < 5.00
11 | CC(=O)N[C@@H](CS)C(=O)N[C@@H](CCC(N)=O)C(=O)N[C@H](C(=O)N[C@@H](Cc1c[nH]c2ccccc12)C(=O)N[C@@H](CCC(N)=O)C(=O)N[C@@H](CS)C(=O)N(C)[C@@H](Cc1ccc(O)cc1)C(=O)N[C@@H](Cc1c[nH]c2ccccc12)C(=O)N[C@@H](CCC(C)C)C(=O)N[C@@H](CCC(=O)O)C(=O)N[C@@H](CC(N)=O)C(=O)NCC(N)=O)[C@@H](C)O | < 4.52
12 | CC(=O)N[C@@H](CS)C(=O)N[C@@H](C)C(=O)N[C@@H](CC(=O)O)C(=O)N[C@@H](Cc1c[nH]c2ccccc12)C(=O)N[C@H](C(=O)N[C@@H](CS)C(=O)N[C@@H](Cc1ccc(O)cc1)C(=O)N[C@@H](Cc1cccc2ccccc12)C(=O)N[C@@H](Cc1cnc[nH]1)C(=O)NCCOCCC(N)=O)C(C)C | < 6.00
13 | CC(C)[C@H](NC(=O)[C@H](Cc1c[nH]c2ccccc12)NC(=O)[C@H](CC(=O)O)NC(=O)[C@H](C)NC(=O)[C@H](CS)NC(=O)COCCN)C(=O)N[C@@H](CS)C(=O)N[C@@H](Cc1ccc(O)cc1)C(=O)N[C@@H](Cc1c[nH]c2ccccc12)C(=O)N[C@@H](Cc1cnc[nH]1)C(=O)N[C@H](C(=O)N[C@@H](Cc1ccccc1)C(=O)NCC(=O)O)[C@@H](C)O | < 6.00
14 | CC[C@H](C)[C@H](NC(=O)[C@H](Cc1cnc[nH]1)NC(=O)[C@H](Cc1c[nH]c2ccccc12)NC(=O)[C@H](Cc1ccc(O)cc1)NC(=O)[C@H](CS)NC(=O)[C@H](CCC(=O)O)NC(=O)[C@H](Cc1c[nH]c2ccccc12)NC(=O)[C@H](CC(=O)O)NC(=O)[C@H](CO)NC(=O)[C@@H](N)CS)C(=O)N[C@@H](Cc1ccccc1)C(=O)NCC(N)=O (H-CSDWECYWHIFG-NH2) | < 6.00
15 | CC(=O)N[C@@H](CS)C(=O)N[C@@H](C)C(=O)N[C@@H](CC(=O)O)C(=O)N[C@@H](Cc1c[nH]c2ccccc12)C(=O)N[C@H](C(=O)N[C@@H](CS)C(=O)N[C@@H](Cc1ccc(O)cc1)C(=O)N[C@@H](Cc1c[nH]c2ccccc12)C(=O)N[C@@H](Cc1cnc[nH]1)C(=O)N[C@H](C(=O)N[C@@H](Cc1ccc(O)cc1)C(=O)NCC(N)=O)[C@@H](C)O)C(C)C | > 6.30
16 | CC(=O)N[C@@H](CS)C(=O)N[C@H](C(=O)N[C@H](C(=O)N[C@@H](Cc1c[nH]c2ccccc12)C(=O)N[C@H](C(=O)N[C@@H](CS)C(=O)N[C@@H](Cc1ccc(O)cc1)C(=O)N[C@@H](Cc1c[nH]c2ccccc12)C(=O)N[C@@H](Cc1cnc[nH]1)C(=O)N[C@@H](CCC(N)=O)C(=O)N[C@@H](Cc1ccc(O)cc1)C(=O)NCC(N)=O)[C@@H](C)O)[C@@H](C)O)[C@@H](C)O (Ac-CTTWTCYWHQYG-NH2) | > 6.30
17 | CC(=O)NCCCC[C@H](NC(=O)[C@](C)(CCCCN)NC(=O)[C@H](Cc1ccc2ccccc2c1)NC(=O)[C@H](Cc1ccc(Cl)c(Cl)c1)NC(=O)[C@@H](NC(=O)[C@H](CCC(N)=O)NC(=O)[C@H](Cc1c[nH]c2ccccc12)NC(=O)[C@@H](NC(=O)[C@H](CCC(N)=O)NC(=O)[C@@H](NC(C)=O)C(C)(C)S)[C@@H](C)O)C(C)(C)S)C(=O)N[C@@H](CC(N)=O)C(=O)NCC(N)=O | 6.00 to 7.00
18 | CC(=O)N[C@@H](CS)C(=O)N[C@@H](C)C(=O)N[C@@H](CC(=O)O)C(=O)N[C@@H](Cc1c[nH]c2ccccc12)C(=O)N[C@H](C(=O)N[C@@H](CS)C(=O)N[C@@H](Cc1ccc(O)cc1)C(=O)N[C@@H](Cc1c[nH]c2ccccc12)C(=O)N[C@@H](Cc1cnc[nH]1)C(=O)N[C@@H](CCCNC(=N)N)C(=O)N[C@@H](Cc1cnc[nH]1)C(=O)N[C@@H](C)C(=O)N[C@@H](CC(=O)O)C(=O)N[C@@H](CCCNC(=N)N)C(=O)N[C@H](C(=O)N[C@@H](CCCCN)C(N)=O)C(C)C)C(C)C (Ac-CADWVCYWHRHADRVK-NH2) | > 6.30
19 | CC(=O)N[C@@H](CS)C(=O)N[C@@H](C)C(=O)N[C@@H](CC(=O)O)C(=O)N[C@@H](Cc1c[nH]c2ccccc12)C(=O)N[C@H](C(=O)N[C@@H](CS)C(=O)N[C@@H](Cc1ccc(O)cc1)C(=O)NC1(C(=O)N[C@@H](Cc2cnc[nH]2)C(=O)N[C@H](C(=O)N[C@@H](Cc2ccccc2)C(=O)NCC(=O)NCCOCC(=O)N[C@H](CCCCN)C(N)=O)[C@@H](C)O)Cc2ccccc2C1)C(C)C | < 6.00
